Test results from patent US20100298141A1, “SUBSTITUTED PYRIDINE N-OXIDE HERBICIDES” (E. I. DU PONT DE NEMOURS AND COMPANY, priority 2007, published 2010).

Tests used:
Assay in all cases: Test F preemergence test
prickly sida = format: in vivo, Sida spinosa; conditions: scale 0 to 100
Outline: (§1)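 Test chemicals in a non-phytotoxic solvent mixture containing a surfactant were applied preemergence to sown seeds or postemergence to sugarcane plants. Treated plants and controls were held in a greenhouse for 14 to 21 days, then visually evaluated against controls.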

common groundsel = format: in vivo, Senecio vulgaris; conditions: scale 0 to 100
Outline: as §1

Surinam grass = format: in vivo, Brachiaria decumbens; conditions: scale 0 to 100; for Surinam Grass plant response rating: preemergence; for Plant response rating, Surinam Grass: Preemergence
Outline: as §1

large crabgrass = format: in vivo, Digitaria sanguinalis; conditions: scale 0 to 100
Outline: as §1

Italian ryegrass = format: in vivo, Lolium multiflorum; conditions: scale 0 to 100; for Ryegrass, Italian plant response rating: preemergence; for Plant response rating, Ryegrass, Italian: Preemergence
Outline: as §1

pitted morningglory = format: in vivo, Ipomoea lacunosa; conditions: scale 0 to 100
Outline: as §1

quackgrass = format: in vivo, Elytrigia repens; conditions: scale 0 to 100
Outline: as §1

naked crabgrass = format: in vivo, Digitaria nuda; conditions: scale 0 to 100
Outline: as §1

common purslane = format: in vivo, Portulaca oleracea; conditions: scale 0 to 100
Outline: as §1

southern sandbur = format: in vivo, Cenchrus echinatus; conditions: scale 0 to 100; for Sandbur plant response rating: preemergence; for Plant response rating, Sandbur: Preemergence
Outline: as §1

goosegrass = format: in vivo, Eleusine indica; conditions: scale 0 to 100
Outline: as §1

johnsongrass = format: in vivo, Sorghum halepense; conditions: scale 0 to 100
Outline: as §1

kochia = format: in vivo, Kochia scoparia; conditions: scale 0 to 100
Outline: as §1

purple nutsedge = format: in vivo, Cyperus rotundus; conditions: scale 0 to 100
Outline: as §1

guineagrass = format: in vivo, Panicum maximum; conditions: scale 0 to 100
Outline: as §1

common ragweed = format: in vivo, Ambrosia elation; conditions: scale 0 to 100; for Ragweed plant response rating: preemergence; for Plant response rating, Ragweed: Preemergence
Outline: as §1

bermudagrass = format: in vivo, Cynodon dactylon; conditions: scale 0 to 100
Outline: as §1

CCc1cc[n+]([O-])c(S(=O)(=O)Cc2c(C(F)(F)F)nn(C)c2OCC(F)(F)F)c1 [Compound 60]
75: Prickly Sida plant response rating (prickly sida; 125 g ai/ha, preemergence) | Prickly Sida plant response rating (prickly sida; 250 g ai/ha, preemergence) | Groundsel plant response rating (common groundsel; 125 g ai/ha, preemergence) | Plant response rating, Ryegrass, Italian (Italian ryegrass; 62 g ai/ha) | Plant response rating, Ryegrass, Italian (Italian ryegrass; 31 g ai/ha) | Quackgrass plant response rating (quackgrass; 62 g ai/ha, Preemergence) | Ragweed plant response rating (common ragweed; 125 g ai/ha)
95: Groundsel plant response rating (common groundsel; 250 g ai/ha, preemergence) | Johnsongrass plant response rating (johnsongrass; 125 g ai/ha, preemergence)
70: Morningglory plant response rating (pitted morningglory; 125 g ai/ha, preemergence)
40: Prickly Sida plant response rating (prickly sida; 62 g ai/ha, Preemergence)
60: Groundsel plant response rating (common groundsel; 62 g ai/ha, Preemergence) | Purslane plant response rating (common purslane; 250 g ai/ha, preemergence)
35: Plant response rating, Guineagrass (guineagrass; Preemergence, 31 g ai/ha)
65: Plant response rating, Sandbur (southern sandbur; 62 g ai/ha) | Kochia plant response rating (kochia; 62 g ai/ha, Preemergence) | Plant response rating, Ragweed (common ragweed; 62 g ai/ha)
25: Purslane plant response rating (common purslane; 125 g ai/ha, preemergence)
50: Johnsongrass plant response rating (johnsongrass; 62 g ai/ha, Preemergence) | Purple Nutsedge plant response rating (purple nutsedge; 62 g ai/ha, Preemergence)
30: Plant response rating, Quackgrass (quackgrass; Preemergence, 31 g ai/ha)
0: Plant response rating, Prickly Sida (prickly sida; Preemergence, 31 g ai/ha) | Plant response rating, Groundsel (common groundsel; Preemergence, 31 g ai/ha) | Plant response rating, Crabgrass, Large (large crabgrass; Preemergence, 31 g ai/ha) | Morningglory plant response rating (pitted morningglory; 62 g ai/ha, Preemergence) | Plant response rating, Morningglory (pitted morningglory; Preemergence, 31 g ai/ha) | Purslane plant response rating (common purslane; 62 g ai/ha, Preemergence) | Plant response rating, Purslane (common purslane; Preemergence, 31 g ai/ha) | Plant response rating, Johnsongrass (johnsongrass; Preemergence, 31 g ai/ha) | Plant response rating, Kochia (kochia; Preemergence, 31 g ai/ha) | Plant response rating, Purple Nutsedge (purple nutsedge; Preemergence, 31 g ai/ha) | Plant response rating, Ragweed (common ragweed; 31 g ai/ha)
100: Surinam Grass plant response rating (Surinam grass; 125 g ai/ha) | Surinam Grass plant response rating (Surinam grass; 250 g ai/ha) | Crabgrass, Large plant response rating (large crabgrass; 125 g ai/ha, preemergence) | Crabgrass, Large plant response rating (large crabgrass; 250 g ai/ha, preemergence) | Ryegrass, Italian plant response rating (Italian ryegrass; 250 g ai/ha) | Morningglory plant response rating (pitted morningglory; 250 g ai/ha, preemergence) | Quackgrass plant response rating (quackgrass; 250 g ai/ha, preemergence) | Crabgrass, Naked plant response rating (naked crabgrass; 62 g ai/ha, Preemergence) | Crabgrass, Naked plant response rating (naked crabgrass; 125 g ai/ha, preemergence) | Crabgrass, Naked plant response rating (naked crabgrass; 250 g ai/ha, preemergence) | Sandbur plant response rating (southern sandbur; 125 g ai/ha) | Sandbur plant response rating (southern sandbur; 250 g ai/ha) | Goosegrass plant response rating (goosegrass; 125 g ai/ha, preemergence) | Goosegrass plant response rating (goosegrass; 250 g ai/ha, preemergence) | Johnsongrass plant response rating (johnsongrass; 250 g ai/ha, preemergence) | Kochia plant response rating (kochia; 125 g ai/ha, preemergence) | Kochia plant response rating (kochia; 250 g ai/ha, preemergence) | Guineagrass plant response rating (guineagrass; 62 g ai/ha, Preemergence) | Guineagrass plant response rating (guineagrass; 125 g ai/ha, preemergence) | Guineagrass plant response rating (guineagrass; 250 g ai/ha, preemergence) | Ragweed plant response rating (common ragweed; 250 g ai/ha) | Bermudagrass plant response rating (bermudagrass; 125 g ai/ha, preemergence) | Bermudagrass plant response rating (bermudagrass; 250 g ai/ha, preemergence)
90: Plant response rating, Surinam Grass (Surinam grass; 62 g ai/ha) | Ryegrass, Italian plant response rating (Italian ryegrass; 125 g ai/ha) | Quackgrass plant response rating (quackgrass; 125 g ai/ha, preemergence) | Purple Nutsedge plant response rating (purple nutsedge; 250 g ai/ha, preemergence)
80: Plant response rating, Surinam Grass (Surinam grass; 31 g ai/ha) | Goosegrass plant response rating (goosegrass; 62 g ai/ha, Preemergence) | Plant response rating, Goosegrass (goosegrass; Preemergence, 31 g ai/ha) | Purple Nutsedge plant response rating (purple nutsedge; 125 g ai/ha, preemergence) | Bermudagrass plant response rating (bermudagrass; 62 g ai/ha, Preemergence)
98: Crabgrass, Large plant response rating (large crabgrass; 62 g ai/ha, Preemergence)
20: Plant response rating, Crabgrass, Naked (naked crabgrass; Preemergence, 31 g ai/ha) | Plant response rating, Sandbur (southern sandbur; 31 g ai/ha) | Plant response rating, Bermudagrass (bermudagrass; Preemergence, 31 g ai/ha)
